Among the data in patent US20220177508A1, “C10-Cyclic Substituted 13-Membered Macrolides and Uses Thereof” (Zikani Therapeutics, Inc., priority 2018, published 2022) are MIC values, retold here.

Converted amounts (≈) assume the structure as drawn.

Assay type in all cases: cell-based
In assay [1] the test system is S. aureus MP-12. Kind of assay: Broth dilution MIC determination (CLSI), S. aureus MP-12. As to conditions: Staphylococcus aureus, MP12; strain MP-12, broth dilution. In general terms: Dilution methods test growth across graded concentrations, often in twofold steps.
Assay [2] deals with P. aeruginosa MP-3. Kind of assay: Broth dilution MIC determination (CLSI), P. aeruginosa MP-3. As to conditions: Pseudomonas aeruginosa, MP3; strain MP-3, broth dilution.
In assay [3] the test system is A. baumannii MP-15. Description: Broth dilution MIC determination (CLSI), A. baumannii MP-15. As to conditions: Acinetobacter baumannii, MP15; strain MP-15, broth dilution; read-out: MIC A. baumanii MP-15.
Assay [4] has as its system E. coli MP-4. Description: Broth dilution MIC determination (CLSI), E. coli MP-4. As to conditions: Escherichia coli, MP4; strain MP-4, broth dilution; read-out: MIC E. coli MP-4.
Assay [5] concerns K. pneumoniae MP-546. Description: Broth dilution MIC determination (CLSI), K. pneumoniae MP-546. As to conditions: Klebsiella pneumoniae, MP546; strain MP-546, broth dilution.

A word on the MIC: it is the lowest concentration that inhibits growth of the organism. On to `CO[C@]1(C)C[C@@H](C)CN(C)[C@H](C2CN(CC(=O)NC(C)C)C2)COC(=O)C(C)(C)C(=O)[C@H](C)[C@H]1O[C@@H]1O[C@H](C)C[C@H](N(C)C)[C@H]1O` [Compound 36, 2-(3-((3R,6R,8R,9R,10R)-9-(((2S,3R,4S,6R)-4-(dimethylamino)-3-hydroxy-6-methyltetrahydro-2H-pyran-2-yl)oxy)-8-methoxy-4,6,8,10,12,12-hexamethyl-11,13-dioxo-1-oxa-4-azacyclotridecan-3-yl)azetidin-1-yl)-N-isopropylacetamide], for which the MIC in assay [1] is greater than 32 µg/mL; in assay [2], greater than 32 µg/mL; in assay [3], greater than 32 µg/mL; in assay [4], 4 to 32 µg/mL (≈ 6.11 to 48.9 µM); in assay [5] it was 4 to 32 µg/mL (≈ 6.11 to 48.9 µM).

With `CCN1C[C@H](C)C[C@@](C)(OC)[C@H](O[C@@H]2O[C@H](C)C[C@H](N(C)C)[C@H]2O)[C@@H](C)C(=O)C(C)(C)C(=O)OC[C@H]1C1CN(C(=O)CN(C)C)C1` [Compound 38, (3R,6R,8R,9R,10R)-9-(((2S,3R,4S,6R)-4-(dimethylamino)-3-hydroxy-6-methyltetrahydro-2H-pyran-2-yl)oxy)-3-(1-(dimethylglycyl)azetidin-3-yl)-4-ethyl-8-methoxy-6,8,10,12,12-pentamethyl-1-oxa-4-azacyclotridecane-11,13-dione], the minimal inhibitory concentration (MIC) is 4 to 32 µg/mL (≈ 6.11 to 48.9 µM) in assay [1]; greater than 32 µg/mL in assay [2]; greater than 32 µg/mL in assay [3]; less than 4 µg/mL in assay [4]; 4 to 32 µg/mL (≈ 6.11 to 48.9 µM) in assay [5].

Consider `CO[C@]1(C)C[C@@H](C)CN(C)[C@H]([C@H]2CCCN(CC(C)C)C2)COC(=O)C(C)(C)C(=O)[C@H](C)[C@H]1O[C@@H]1O[C@H](C)C[C@H](N(C)C)[C@H]1O` [Compound 39, (3R,6R,8R,9R,10R)-9-(((2S,3R,4S,6R)-4-(Dimethylamino)-3-hydroxy-6-methyltetrahydro-2H-pyran-2-yl)oxy)-3-((S)-1-isobutylpiperidin-3-yl)-8-methoxy-4,6,8,10,12,12-hexamethyl-1-oxa-4-azacyclotridecane-11,13-dione], for which the MIC was 4 to 32 µg/mL (≈ 6.25 to 50 µM) in assay [1]; greater than 32 µg/mL in assay [2]; greater than 32 µg/mL in assay [3]; 4 to 32 µg/mL (≈ 6.25 to 50 µM) in assay [4]; 4 to 32 µg/mL (≈ 6.25 to 50 µM) in assay [5].

For the compound `CO[C@]1(C)C[C@@H](C)CN(C)[C@@H]([C@H]2CCNC2)COC(=O)C(C)(C)C(=O)[C@H](C)[C@H]1O[C@@H]1O[C@H](C)C[C@H](N(C)C)[C@H]1O` [Compound 40, (3S,6R,8R,9R,10R)-9-(((2S,3R,4S,6R)-4-(Dimethylamino)-3-hydroxy-6-methyltetrahydro-2H-pyran-2-yl)oxy)-8-methoxy-4,6,8,10,12,12-hexamethyl-3-((S)-pyrrolidin-3-yl)-1-oxa-4-azacyclotridecane-11,13-dione], the minimal inhibitory concentration (MIC) was 4 to 32 µg/mL (≈ 7.02 to 56.2 µM) in assay [1]; greater than 32 µg/mL in assay [2]; greater than 32 µg/mL in assay [3]; less than 4 µg/mL in assay [4]; less than 4 µg/mL in assay [5].

Take `CO[C@]1(C)C[C@@H](C)CN(C)[C@H](c2ccccc2)COC(=O)C(C)(C)C(=O)[C@H](C)[C@H]1O[C@@H]1O[C@H](C)C[C@H](N(C)C)[C@H]1O` [Compound 42, (3R,6R,8R,9R,10R)-9-(((2S,3R,4S,6R)-4-(Dimethylamino)-3-hydroxy-6-methyltetrahydro-2H-pyran-2-yl)oxy)-8-methoxy-4,6,8,10,12,12-hexamethyl-3-phenyl-1-oxa-4-azacyclotridecane-11,13-dione]: the MIC in assay [1] is greater than 32 µg/mL; in assay [2], greater than 32 µg/mL; in assay [3], greater than 32 µg/mL; in assay [4], 4 to 32 µg/mL (≈ 6.94 to 55.5 µM); in assay [5], greater than 32 µg/mL.

With `CO[C@]1(C)C[C@@H](C)CN(C)[C@H](C2CCN(C)CC2)COC(=O)C(C)(C)C(=O)[C@H](C)[C@H]1O[C@@H]1O[C@H](C)C[C@H](N(C)C)[C@H]1O` [Compound 43, (3R,6R,8R,9R,10R)-9-(((2S,3R,4S,6R)-4-(dimethylamino)-3-hydroxy-6-methyltetrahydro-2H-pyran-2-yl)oxy)-8-methoxy-4,6,8,10,12,12-hexamethyl-3-(1-methylpiperidin-4-yl)-1-oxa-4-azacyclotridecane-11,13-dione], the minimal inhibitory concentration (MIC) in assay [1] is 4 to 32 µg/mL (≈ 6.69 to 53.5 µM); in assay [2] it was greater than 32 µg/mL; in assay [3] it was greater than 32 µg/mL; in assay [4] it was less than 4 µg/mL; in assay [5], less than 4 µg/mL.

For `CNCC(=O)N1C2CCC1CC([C@@H]1COC(=O)C(C)(C)C(=O)[C@H](C)[C@@H](O[C@@H]3O[C@H](C)C[C@H](N(C)C)[C@H]3O)[C@](C)(OC)C[C@@H](C)CN1C)C2` (stereo partly drawn) [Compound 44, (3R,6R,8R,9R,10R)-9-(((2S,3R,4S,6R)-4-(dimethylamino)-3-hydroxy-6-methyltetrahydro-2H-pyran-2-yl)oxy)-8-methoxy-4,6,8,10,12,12-hexamethyl-3-(8-(methylglycyl)-8-azabicyclo[3.2.1]octan-3-yl)-1-oxa-4-azacyclotridecane-11,13-dione], the MIC in assay [1] is greater than 32 µg/mL; in assay [2] it was greater than 32 µg/mL; in assay [3] it was greater than 32 µg/mL; in assay [4] it was 4 to 32 µg/mL (≈ 5.87 to 47 µM); in assay [5] it was greater than 32 µg/mL.

With `CO[C@]1(C)C[C@@H](C)CN(C)[C@H](C2CN(CC(=O)N3CCCC3)C2)COC(=O)C(C)(C)C(=O)[C@H](C)[C@H]1O[C@@H]1O[C@H](C)C[C@H](N(C)C)[C@H]1O` [Compound 45, (3R,6R,8R,9R,10R)-9-(((2S,3R,4S,6R)-4-(dimethylamino)-3-hydroxy-6-methyltetrahydro-2H-pyran-2-yl)oxy)-8-methoxy-4,6,8,10,12,12-hexamethyl-3-(1-(2-oxo-2-(pyrrolidin-1-yl)ethyl)azetidin-3-yl)-1-oxa-4-azacyclotridecane-11,13-dione], the MIC in assay [1] is 4 to 32 µg/mL (≈ 6 to 48 µM); in assay [2] it was greater than 32 µg/mL; in assay [3], greater than 32 µg/mL; in assay [4] it was less than 4 µg/mL; in assay [5] it was 4 to 32 µg/mL (≈ 6 to 48 µM).

As for `CO[C@]1(C)C[C@@H](C)CN(C)[C@H]([C@@H]2CCN(C(C)C)C2)COC(=O)C(C)(C)C(=O)[C@H](C)[C@H]1O[C@@H]1O[C@H](C)C[C@H](N(C)C)[C@H]1O` [Compound 46, (3R,6R,8R,9R,10R)-9-(((2S,3R,4S,6R)-4-(Dimethylamino)-3-hydroxy-6-methyltetrahydro-2H-pyran-2-yl)oxy)-3-((R)-1-isopropylpyrrolidin-3-yl)-8-methoxy-4,6,8,10,12,12-hexamethyl-1-oxa-4-azacyclotridecane-11,13-dione], the minimum inhibitory concentration (MIC) in assay [1] is greater than 32 µg/mL; in assay [2] it was greater than 32 µg/mL; in assay [3] it was greater than 32 µg/mL; in assay [4], less than 4 µg/mL; in assay [5], 4 to 32 µg/mL (≈ 6.54 to 52.3 µM).

As to `CO[C@]1(C)C[C@@H](C)CN(C)[C@H](C2CCNCC2)[C@H](C)OC(=O)C(C)(C)C(=O)[C@H](C)[C@H]1O[C@@H]1O[C@H](C)C[C@H](N(C)C)[C@H]1O` [Compound 47, (2S,3R,6R,8R,9R,10R)-9-(((2S,3R,4S,6R)-4-(dimethylamino)-3-hydroxy-6-methyltetrahydro-2H-pyran-2-yl)oxy)-8-methoxy-2,4,6,8,10,12,12-heptamethyl-3-(piperidin-4-yl)-1-oxa-4-azacyclotridecane-11,13-dione], the minimum inhibitory concentration (MIC) is greater than 32 µg/mL in assay [1]; greater than 32 µg/mL in assay [2]; greater than 32 µg/mL in assay [3]; 4 to 32 µg/mL (≈ 6.69 to 53.5 µM) in assay [4]; greater than 32 µg/mL in assay [5].

Take `CO[C@]1(C)C[C@@H](C)CN(C)[C@@H]([C@H]2CCN(C)C2)COC(=O)C(C)(C)C(=O)[C@H](C)[C@H]1O[C@@H]1O[C@H](C)C[C@H](N(C)C)[C@H]1O` [Compound 48, (3S,6R,8R,9R,10R)-9-(((2S,3R,4S,6R)-4-(Dimethylamino)-3-hydroxy-6-methyltetrahydro-2H-pyran-2-yl)oxy)-8-methoxy-4,6,8,10,12,12-hexamethyl-3-((S)-1-methylpyrrolidin-3-yl)-1-oxa-4-azacyclotridecane-11,13-dione]: the minimal inhibitory concentration (MIC) in assay [1] was 4 to 32 µg/mL (≈ 6.85 to 54.8 µM); in assay [2], greater than 32 µg/mL; in assay [3], greater than 32 µg/mL; in assay [4], less than 4 µg/mL; in assay [5], less than 4 µg/mL.

In the case of `CO[C@]1(C)C[C@@H](C)CN(C)[C@@H](C2CN(C(=O)[C@@H](C)N(C)C)C2)COC(=O)C(C)(C)C(=O)[C@H](C)[C@H]1O[C@@H]1O[C@H](C)C[C@H](N(C)C)[C@H]1O` [Compound 52, (3S,6R,8R,9R,10R)-3-(1-(dimethyl-D-alanyl)azetidin-3-yl)-9-(((2S,3R,4S,6R)-4-(dimethylamino)-3-hydroxy-6-methyltetrahydro-2H-pyran-2-yl)oxy)-8-methoxy-4,6,8,10,12,12-hexamethyl-1-oxa-4-azacyclotridecane-11,13-dione], the MIC in assay [1] is greater than 32 µg/mL; in assay [2], greater than 32 µg/mL; in assay [3] it was greater than 32 µg/mL; in assay [4] it was less than 4 µg/mL; in assay [5] it was 4 to 32 µg/mL (≈ 6.11 to 48.9 µM).

With `CO[C@]1(C)C[C@@H](C)CN(C)[C@@H]([C@@H]2CCCNC2)COC(=O)C(C)(C)C(=O)[C@H](C)[C@H]1O[C@@H]1O[C@H](C)C[C@H](N(C)C)[C@H]1O` [Compound 53], the MIC in assay [1] was 4 to 32 µg/mL (≈ 6.85 to 54.8 µM); in assay [2] it was greater than 32 µg/mL; in assay [3], greater than 32 µg/mL; in assay [4], less than 4 µg/mL; in assay [5], less than 4 µg/mL.

For the compound `CO[C@]1(C)C[C@@H](C)CN(C)[C@@H]([C@H]2CCCN(C(C)C)C2)COC(=O)C(C)(C)C(=O)[C@H](C)[C@H]1O[C@@H]1O[C@H](C)C[C@H](N(C)C)[C@H]1O` [Compound 56, (3S,6R,8R,9R,10R)-9-(((2S,3R,4S,6R)-4-(dimethylamino)-3-hydroxy-6-methyltetrahydro-2H-pyran-2-yl)oxy)-3-((S)-1-isopropylpiperidin-3-yl)-8-methoxy-4,6,8,10,12,12-hexamethyl-1-oxa-4-azacyclotridecane-11,13-dione], the MIC in assay [1], in assay [2], in assay [3], in assay [4] and in assay [5] was greater than 32 µg/mL throughout.
